Test results published in ChEMBL document CHEMBL1240295, “Specificity and mechanism of action of some commonly used protein kinase inhibitors” (Biochem J, 2000).
pIC50: −log10 of the molar value.

Key:
[1] = target: Mitogen-activated protein kinase 14 (Homo sapiens) (UniProt Q16539); settings: at 10 µM
Description: Inhibition of Gst-tagged human SAPK2a/p38 expressed in Escherichia coli at 10 uM

Bos taurus = species on record: Bos taurus; settings: at 10 µM
Description: Inhibition of bovine heart PKA at 10 uM

[2] = target: T1, MAP kinase-activated protein kinase 5 (Homo sapiens) (UniProt Q8IW41); settings: Sf9, at 10 µM
T1 sequence (whole entry): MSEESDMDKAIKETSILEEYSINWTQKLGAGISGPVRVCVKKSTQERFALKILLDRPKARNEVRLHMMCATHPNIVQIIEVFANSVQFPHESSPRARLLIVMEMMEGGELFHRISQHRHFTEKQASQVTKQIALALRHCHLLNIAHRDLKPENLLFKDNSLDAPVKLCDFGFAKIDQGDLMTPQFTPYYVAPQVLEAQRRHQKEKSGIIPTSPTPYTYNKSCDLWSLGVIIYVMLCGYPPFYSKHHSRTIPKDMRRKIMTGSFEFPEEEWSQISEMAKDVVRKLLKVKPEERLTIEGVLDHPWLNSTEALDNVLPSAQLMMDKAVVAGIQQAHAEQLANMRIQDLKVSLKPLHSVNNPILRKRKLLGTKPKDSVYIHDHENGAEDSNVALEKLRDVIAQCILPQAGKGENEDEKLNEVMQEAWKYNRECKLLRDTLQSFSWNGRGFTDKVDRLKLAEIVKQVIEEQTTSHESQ
Description: Inhibition of His-tagged human PRAK expressed in Sf9 cells at 10 uM

[3] = target: Rho-associated protein kinase 2 (Rattus norvegicus) (UniProt Q62868); settings: Sf9, at 10 µM
Description: Inhibition of rat ROCK2 expressed in Sf9 cells at 10 uM

Rattus norvegicus = species on record: Rattus norvegicus; settings: at 10 µM
Description: Inhibition of rat liver AMPK at 10 uM

[4] = target: Casein kinase II (Homo sapiens) (UniProt P67870+P68400+P19784); settings: Sf9, at 10 µM
Description: Inhibition of His-tagged human CK2 expressed in Sf9 cells at 10 uM

[5] = Inhibition of PHK from rabbit skeletal muscle; format: tissue-based, Oryctolagus cuniculus, Muscle tissue
[6] = target: T2, Serine/threonine-protein kinase Chk1 (Homo sapiens) (UniProt O14757); settings: at 10 µM
T2 sequence (whole entry): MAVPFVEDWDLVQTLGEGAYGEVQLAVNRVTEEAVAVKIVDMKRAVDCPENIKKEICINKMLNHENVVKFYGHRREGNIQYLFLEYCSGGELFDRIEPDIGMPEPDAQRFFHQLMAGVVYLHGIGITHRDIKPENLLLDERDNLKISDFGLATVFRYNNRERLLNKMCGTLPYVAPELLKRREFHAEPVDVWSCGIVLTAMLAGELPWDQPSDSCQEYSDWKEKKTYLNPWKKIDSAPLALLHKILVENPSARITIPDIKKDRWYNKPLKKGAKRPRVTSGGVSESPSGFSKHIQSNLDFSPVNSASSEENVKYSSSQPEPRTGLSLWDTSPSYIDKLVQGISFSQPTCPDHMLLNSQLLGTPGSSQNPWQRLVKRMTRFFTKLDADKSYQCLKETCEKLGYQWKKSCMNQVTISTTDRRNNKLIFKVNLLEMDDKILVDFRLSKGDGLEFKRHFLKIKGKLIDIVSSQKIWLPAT
Description: Inhibition of His-tagged human CHK1 expressed in Escherichia coli at 10 uM

[7] = target: T3, Serine/threonine-protein kinase Sgk1 (Homo sapiens) (UniProt O00141); settings: Sf9, at 10 µM
T3 sequence (whole entry): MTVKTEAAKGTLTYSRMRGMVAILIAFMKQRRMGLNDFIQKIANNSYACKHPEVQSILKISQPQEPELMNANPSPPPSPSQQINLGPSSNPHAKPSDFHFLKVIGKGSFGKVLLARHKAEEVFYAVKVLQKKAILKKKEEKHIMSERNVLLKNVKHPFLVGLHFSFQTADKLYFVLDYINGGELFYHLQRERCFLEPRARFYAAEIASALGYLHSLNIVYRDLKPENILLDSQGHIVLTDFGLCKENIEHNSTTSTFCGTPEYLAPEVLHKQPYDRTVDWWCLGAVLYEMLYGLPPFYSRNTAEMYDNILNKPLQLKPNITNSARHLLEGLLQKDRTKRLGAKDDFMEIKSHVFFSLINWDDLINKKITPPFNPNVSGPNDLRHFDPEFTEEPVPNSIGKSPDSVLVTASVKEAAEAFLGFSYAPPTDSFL
Description: Inhibition of His-tagged human SGK expressed in Sf9 cells at 10 uM

[8] = target: Tyrosine-protein kinase Lck (Homo sapiens) (UniProt P06239); settings: Sf9, at 10 µM
Description: Inhibition of His-tagged human LCK expressed in Sf9 cells at 10 uM

[9] = target: T4, Mitogen-activated protein kinase 12 (Homo sapiens) (UniProt P53778); settings: at 10 µM
T4 sequence (whole entry): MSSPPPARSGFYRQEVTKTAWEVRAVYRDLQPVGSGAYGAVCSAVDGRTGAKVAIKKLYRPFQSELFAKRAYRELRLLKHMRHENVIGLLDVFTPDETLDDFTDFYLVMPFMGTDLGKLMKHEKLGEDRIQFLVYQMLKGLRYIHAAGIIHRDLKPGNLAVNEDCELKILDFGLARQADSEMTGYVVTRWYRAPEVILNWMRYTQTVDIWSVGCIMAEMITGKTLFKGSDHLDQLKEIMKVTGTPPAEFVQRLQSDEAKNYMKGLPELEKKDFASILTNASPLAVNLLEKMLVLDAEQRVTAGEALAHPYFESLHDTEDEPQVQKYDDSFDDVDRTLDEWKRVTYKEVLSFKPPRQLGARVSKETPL
Description: Inhibition of Gst-tagged human SAPK3/p38gamma expressed in Escherichia coli at 10 uM

[10] = target: MAP kinase-activated protein kinase 2 (Homo sapiens, UniProt P49137); settings: at 10 µM
Description: Inhibition of Gst-tagged human MAPKAPK2 expressed in Escherichia coli at 10 uM

Oryctolagus cuniculus [11] = species on record: Oryctolagus cuniculus; settings: Muscle tissue, at 10 µM
Description: Inhibition of PHK from rabbit skeletal muscle at 10 uM

[12] = target: Ribosomal protein S6 kinase beta-1 (Homo sapiens, UniProt P23443); settings: at 10 µM
Description: Inhibition of His-tagged human S6K1 expressed in Escherichia coli at 10 uM

[13] = target: Mitogen-activated protein kinase 11 (Homo sapiens) (UniProt Q15759); settings: at 10 µM
Description: Inhibition of Gst-tagged human SAPK2b/p38--beta-2 expressed in Escherichia coli at 10 uM

[14] = target: Glycogen synthase kinase-3 beta (Homo sapiens, UniProt P49841); settings: Sf21, at 10 µM
Description: Inhibition of His-tagged human GSK3b expressed in Sf21 cells at 10 uM

Oryctolagus cuniculus [15] = species on record: Oryctolagus cuniculus; settings: at 10 µM
Description: Inhibition of rabbit MKK1 expressed in Escherichia coli at 10 uM

Oryctolagus cuniculus [16] = species on record: Oryctolagus cuniculus; settings: Muscle tissue, at 10 µM; remark: listed apart in the source
Description: Inhibition of MAPKAPK1b from rabbit skeletal muscle at 10 uM

[17] = target: Mitogen-activated protein kinase 1 (Homo sapiens) (UniProt P28482); settings: at 10 µM
Description: Inhibition of Gst-tagged human MAPK2/ERK2 expressed in Escherichia coli at 10 uM

[18] = target: 3-phosphoinositide-dependent protein kinase 1 (Homo sapiens) (UniProt O15530); settings: Sf21, at 10 µM
[19] = target: Ribosomal protein S6 kinase alpha-5 (Homo sapiens, UniProt O75582); settings: Sf9, at 10 µM
Description: Inhibition of His-tagged human MSK1 expressed in Sf9 cells at 10 uM

[20] = target: Mitogen-activated protein kinase 8 (Homo sapiens) (UniProt P45983); settings: at 10 µM
Description: Inhibition of Gst-tagged human JNK1a1 expressed in Escherichia coli at 10 uM

[21] = target: RAC-alpha serine/threonine-protein kinase (Homo sapiens) (UniProt P31749); settings: Sf9, at 10 µM
Description: Inhibition of human PKBalpha expressed in SF9 cells at 10 uM

[22] = Inhibition of bovine heart PKA; parameters: species or system Bos taurus
[23] = target: Protein kinase C alpha type (Homo sapiens, UniProt P17252); settings: at 10 µM
Description: Inhibition of His-tagged human PKCalpha expressed in Escherichia coli at 10 uM

[24] = target: T5, Mitogen-activated protein kinase 13 (Homo sapiens) (UniProt O15264); settings: at 10 µM
T5 sequence (whole entry): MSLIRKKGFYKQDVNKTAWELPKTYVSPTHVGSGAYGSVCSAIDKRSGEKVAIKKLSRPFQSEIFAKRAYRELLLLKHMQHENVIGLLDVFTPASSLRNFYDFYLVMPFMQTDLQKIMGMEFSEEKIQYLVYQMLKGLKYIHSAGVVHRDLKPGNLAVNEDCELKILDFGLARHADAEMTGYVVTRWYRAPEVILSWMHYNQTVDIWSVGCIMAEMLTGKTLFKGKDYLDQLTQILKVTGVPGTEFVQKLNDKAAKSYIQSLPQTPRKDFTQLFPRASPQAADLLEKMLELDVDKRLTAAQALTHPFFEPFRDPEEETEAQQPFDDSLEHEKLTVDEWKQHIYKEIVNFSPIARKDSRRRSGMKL
Description: Inhibition of Gst-tagged human SAPK4/p38delta expressed in Escherichia coli at 10 uM

Sequence of Mitogen-activated protein kinase 11 (Homo sapiens) (Q15759 whole entry): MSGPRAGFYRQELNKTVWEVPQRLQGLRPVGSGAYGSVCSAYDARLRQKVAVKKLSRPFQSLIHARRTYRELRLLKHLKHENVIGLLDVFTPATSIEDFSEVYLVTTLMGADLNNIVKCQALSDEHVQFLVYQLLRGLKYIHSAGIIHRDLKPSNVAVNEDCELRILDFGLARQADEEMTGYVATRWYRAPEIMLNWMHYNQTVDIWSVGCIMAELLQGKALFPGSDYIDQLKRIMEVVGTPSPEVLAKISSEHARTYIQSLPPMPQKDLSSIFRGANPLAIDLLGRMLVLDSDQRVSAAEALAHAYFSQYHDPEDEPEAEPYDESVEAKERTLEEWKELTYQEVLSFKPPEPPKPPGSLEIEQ
Sequence of Mitogen-activated protein kinase 1 (Homo sapiens) (P28482 whole entry): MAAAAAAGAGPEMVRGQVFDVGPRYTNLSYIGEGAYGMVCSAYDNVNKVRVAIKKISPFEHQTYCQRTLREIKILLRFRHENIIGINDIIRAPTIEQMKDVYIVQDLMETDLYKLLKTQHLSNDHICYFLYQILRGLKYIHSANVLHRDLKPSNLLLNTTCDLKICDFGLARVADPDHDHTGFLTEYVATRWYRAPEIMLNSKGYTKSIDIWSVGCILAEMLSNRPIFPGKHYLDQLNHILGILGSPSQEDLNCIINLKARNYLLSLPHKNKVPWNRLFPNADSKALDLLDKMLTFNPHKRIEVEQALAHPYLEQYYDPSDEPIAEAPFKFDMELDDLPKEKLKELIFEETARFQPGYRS
Sequence of Rho-associated protein kinase 2 (Rattus norvegicus) (Q62868 whole entry, looked up): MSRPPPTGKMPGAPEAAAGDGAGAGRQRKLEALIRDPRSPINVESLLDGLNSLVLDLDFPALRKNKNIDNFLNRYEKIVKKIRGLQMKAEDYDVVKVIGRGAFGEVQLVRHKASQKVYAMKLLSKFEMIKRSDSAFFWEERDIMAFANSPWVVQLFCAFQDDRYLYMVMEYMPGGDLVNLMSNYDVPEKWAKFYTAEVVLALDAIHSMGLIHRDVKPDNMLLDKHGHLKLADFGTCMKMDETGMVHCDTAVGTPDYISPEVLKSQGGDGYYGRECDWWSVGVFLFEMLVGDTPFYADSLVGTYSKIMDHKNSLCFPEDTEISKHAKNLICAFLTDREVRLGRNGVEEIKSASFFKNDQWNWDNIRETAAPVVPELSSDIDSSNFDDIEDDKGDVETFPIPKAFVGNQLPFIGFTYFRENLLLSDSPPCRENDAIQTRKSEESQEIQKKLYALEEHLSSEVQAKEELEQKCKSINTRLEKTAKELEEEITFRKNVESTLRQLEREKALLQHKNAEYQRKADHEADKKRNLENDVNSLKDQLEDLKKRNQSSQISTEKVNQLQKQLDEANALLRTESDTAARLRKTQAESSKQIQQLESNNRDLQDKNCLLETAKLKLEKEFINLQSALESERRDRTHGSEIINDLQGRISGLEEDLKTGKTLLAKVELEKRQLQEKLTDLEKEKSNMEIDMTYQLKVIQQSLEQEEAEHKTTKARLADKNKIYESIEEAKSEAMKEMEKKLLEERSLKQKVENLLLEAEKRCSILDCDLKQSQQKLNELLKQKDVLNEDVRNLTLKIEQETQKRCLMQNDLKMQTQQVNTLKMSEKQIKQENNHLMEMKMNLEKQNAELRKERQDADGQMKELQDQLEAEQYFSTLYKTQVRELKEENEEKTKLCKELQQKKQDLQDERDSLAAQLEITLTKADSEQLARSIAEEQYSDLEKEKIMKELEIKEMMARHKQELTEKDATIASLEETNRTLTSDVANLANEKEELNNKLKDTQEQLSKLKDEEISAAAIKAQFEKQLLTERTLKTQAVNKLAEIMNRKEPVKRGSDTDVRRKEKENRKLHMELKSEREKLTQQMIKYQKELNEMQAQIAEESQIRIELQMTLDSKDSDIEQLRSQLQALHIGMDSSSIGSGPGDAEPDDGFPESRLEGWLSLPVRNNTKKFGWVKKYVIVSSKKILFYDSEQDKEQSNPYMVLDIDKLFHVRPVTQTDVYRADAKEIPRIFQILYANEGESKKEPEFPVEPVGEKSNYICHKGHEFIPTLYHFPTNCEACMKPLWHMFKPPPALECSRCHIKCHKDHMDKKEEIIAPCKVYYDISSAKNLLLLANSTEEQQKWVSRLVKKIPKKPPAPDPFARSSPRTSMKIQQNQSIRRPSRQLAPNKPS
Sequence of MAP kinase-activated protein kinase 2 (P49137 whole entry, looked up): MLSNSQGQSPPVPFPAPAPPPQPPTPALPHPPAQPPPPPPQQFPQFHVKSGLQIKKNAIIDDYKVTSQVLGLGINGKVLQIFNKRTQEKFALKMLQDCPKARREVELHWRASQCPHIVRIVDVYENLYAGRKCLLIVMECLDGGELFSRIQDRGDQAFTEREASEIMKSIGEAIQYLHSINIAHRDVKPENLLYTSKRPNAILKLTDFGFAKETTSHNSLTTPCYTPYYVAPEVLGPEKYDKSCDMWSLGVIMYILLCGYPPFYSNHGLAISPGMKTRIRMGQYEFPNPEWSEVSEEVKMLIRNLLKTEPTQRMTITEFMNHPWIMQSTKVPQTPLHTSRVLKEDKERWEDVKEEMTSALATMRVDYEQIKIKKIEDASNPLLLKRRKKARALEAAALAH
Sequence of Tyrosine-protein kinase Lck (Homo sapiens) (P06239 2-509 limits assumed): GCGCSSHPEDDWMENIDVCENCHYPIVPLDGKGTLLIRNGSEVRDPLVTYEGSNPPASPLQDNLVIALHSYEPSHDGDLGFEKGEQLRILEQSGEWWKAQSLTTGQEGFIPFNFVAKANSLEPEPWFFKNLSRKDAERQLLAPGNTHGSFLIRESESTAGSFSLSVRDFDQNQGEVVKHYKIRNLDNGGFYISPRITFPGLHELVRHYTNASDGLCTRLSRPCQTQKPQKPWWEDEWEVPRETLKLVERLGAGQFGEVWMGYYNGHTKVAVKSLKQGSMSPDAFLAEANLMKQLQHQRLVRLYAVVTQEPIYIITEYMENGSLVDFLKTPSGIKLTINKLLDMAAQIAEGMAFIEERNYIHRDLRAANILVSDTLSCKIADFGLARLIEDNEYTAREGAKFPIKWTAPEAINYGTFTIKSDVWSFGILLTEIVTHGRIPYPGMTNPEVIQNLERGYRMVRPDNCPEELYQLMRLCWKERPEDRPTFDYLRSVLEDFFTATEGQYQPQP
Sequence of Ribosomal protein S6 kinase alpha-5 (O75582 whole entry, looked up): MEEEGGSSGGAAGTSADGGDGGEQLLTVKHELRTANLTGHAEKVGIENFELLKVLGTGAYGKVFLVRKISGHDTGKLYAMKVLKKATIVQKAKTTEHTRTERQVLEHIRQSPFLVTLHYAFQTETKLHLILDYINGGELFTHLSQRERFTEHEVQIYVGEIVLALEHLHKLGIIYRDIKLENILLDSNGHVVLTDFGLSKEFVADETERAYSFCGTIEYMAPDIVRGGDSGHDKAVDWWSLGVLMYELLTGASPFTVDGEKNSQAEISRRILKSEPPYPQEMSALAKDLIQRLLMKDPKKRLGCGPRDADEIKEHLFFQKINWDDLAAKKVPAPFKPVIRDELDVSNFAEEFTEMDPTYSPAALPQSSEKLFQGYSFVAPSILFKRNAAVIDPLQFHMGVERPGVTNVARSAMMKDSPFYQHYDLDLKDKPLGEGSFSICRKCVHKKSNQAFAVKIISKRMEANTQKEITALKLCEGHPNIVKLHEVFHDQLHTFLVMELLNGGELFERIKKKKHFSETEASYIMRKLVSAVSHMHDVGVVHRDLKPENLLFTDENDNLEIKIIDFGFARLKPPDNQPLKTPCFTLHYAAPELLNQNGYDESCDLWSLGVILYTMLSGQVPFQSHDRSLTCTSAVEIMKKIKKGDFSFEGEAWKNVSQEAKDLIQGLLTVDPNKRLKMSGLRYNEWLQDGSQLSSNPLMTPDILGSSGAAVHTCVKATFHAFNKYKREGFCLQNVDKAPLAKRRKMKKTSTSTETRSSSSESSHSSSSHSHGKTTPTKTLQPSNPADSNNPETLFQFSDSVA
Sequence of Mitogen-activated protein kinase 8 (Homo sapiens) (P45983 whole entry): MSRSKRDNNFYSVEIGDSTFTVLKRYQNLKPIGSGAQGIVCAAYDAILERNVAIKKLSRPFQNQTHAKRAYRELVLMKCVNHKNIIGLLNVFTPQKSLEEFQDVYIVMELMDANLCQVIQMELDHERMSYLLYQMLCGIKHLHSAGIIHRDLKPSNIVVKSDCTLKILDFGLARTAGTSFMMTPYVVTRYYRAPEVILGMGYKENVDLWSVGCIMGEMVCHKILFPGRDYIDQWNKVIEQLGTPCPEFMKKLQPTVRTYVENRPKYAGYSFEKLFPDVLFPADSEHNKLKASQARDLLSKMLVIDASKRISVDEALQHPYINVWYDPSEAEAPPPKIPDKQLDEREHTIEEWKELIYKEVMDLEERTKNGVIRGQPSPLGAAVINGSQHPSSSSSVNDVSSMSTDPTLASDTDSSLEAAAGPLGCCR

Which results are given for `CCCCCCOC(=O)[C@@]1(O)C[C@H]2O[C@]1(C)n1c3ccccc3c3c4c(c5c6ccccc6n2c5c31)C(=O)NC4`?
residual activity [1]: 103%; residual activity (Bos taurus): 39%; residual activity [2]: 58%; residual activity [3]: 84%; residual activity (Rattus norvegicus): 22%; residual activity [4]: 95%; pIC50 [5]: 7.96; residual activity [6]: 13%; residual activity [7]: 29%; residual activity [8]: 46%; residual activity [9]: 95%; residual activity [10]: 62%; level, % of control (Oryctolagus cuniculus [11]): 0%; residual activity [12]: 66%; residual activity [13]: 98%; residual activity [14]: 39%; residual activity (Oryctolagus cuniculus [15]): 20%; level, % of control (Oryctolagus cuniculus [16]): 23%; residual activity [17]: 57%; residual activity [18]: 7%; residual activity [19]: 39%; residual activity [20]: 81%; residual activity [21]: 36%; pIC50 [22]: 5.48; residual activity [23]: 87%; residual activity [24]: 95%
